Series [1] can be described thus: Clearance in rat blood at 0.5 mg/kg, iv and 1 mg/kg, po. To be noted: whole blood. It is filed as ADME, organism-based.
A short description of series [2]: Oral bioavailability in rat at 1 mg/kg. To be noted: in vivo. It is filed as ADME, organism-based.
For the next series, the target named is Cytochrome P450 2C9 (Homo sapiens, UniProt P11712). As to the kind of experiment: Inhibition of CYP2C9. It is filed as ADME.
Series [3] deals with Liver microsomes. Nature of the series: Intrinsic clearance in human liver microsome. It is filed as ADME.
Series [4] is described as follows: Protein binding in rat brain assessed as unbound fraction. To be noted: brain tissue. It is filed as ADME, tissue-based.
The target of a further series is T1, Cytochrome P450 1A2 (Homo sapiens, UniProt P05177).
T1 sequence (P05177 whole entry): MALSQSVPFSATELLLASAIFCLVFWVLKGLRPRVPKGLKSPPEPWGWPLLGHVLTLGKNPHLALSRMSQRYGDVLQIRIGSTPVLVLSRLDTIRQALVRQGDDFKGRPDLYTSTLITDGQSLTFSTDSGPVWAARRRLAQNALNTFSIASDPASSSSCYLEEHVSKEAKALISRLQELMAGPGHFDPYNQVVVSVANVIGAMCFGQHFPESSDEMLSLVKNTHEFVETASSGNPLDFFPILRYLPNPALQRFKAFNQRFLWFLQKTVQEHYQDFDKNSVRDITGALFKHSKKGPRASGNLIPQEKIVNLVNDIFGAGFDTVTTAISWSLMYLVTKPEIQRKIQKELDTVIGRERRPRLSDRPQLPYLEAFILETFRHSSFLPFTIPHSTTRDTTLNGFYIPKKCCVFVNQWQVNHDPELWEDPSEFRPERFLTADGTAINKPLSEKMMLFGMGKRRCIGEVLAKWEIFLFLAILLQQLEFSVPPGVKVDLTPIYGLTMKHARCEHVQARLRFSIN
Nature of the series: Inhibition of CYP1A2. It counts as ADME.

The target of another series is Cytochrome P450 2D6 (Homo sapiens, UniProt P10635). As to the kind of experiment: Inhibition of CYP2D6. It counts as ADME.
Series [5] has as its target T2, Neuropeptide Y receptor type 5 (Homo sapiens, UniProt Q15761).
T2 sequence (Q15761 whole entry): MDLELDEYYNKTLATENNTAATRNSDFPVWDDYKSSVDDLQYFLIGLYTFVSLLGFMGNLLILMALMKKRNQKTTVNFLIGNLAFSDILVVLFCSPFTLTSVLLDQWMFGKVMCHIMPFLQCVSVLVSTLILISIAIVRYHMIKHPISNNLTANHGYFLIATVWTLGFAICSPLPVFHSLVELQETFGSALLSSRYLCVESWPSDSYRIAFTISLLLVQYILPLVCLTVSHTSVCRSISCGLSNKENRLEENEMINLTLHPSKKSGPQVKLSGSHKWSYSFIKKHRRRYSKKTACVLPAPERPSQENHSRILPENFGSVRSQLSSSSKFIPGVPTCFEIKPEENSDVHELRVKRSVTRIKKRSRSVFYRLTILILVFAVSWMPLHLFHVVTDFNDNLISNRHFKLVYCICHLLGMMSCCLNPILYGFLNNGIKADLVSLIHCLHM
Nature of the series: Antagonist activity at human NPY Y5 receptor. It counts as functional.

Series [6] is described as follows: Ratio of drug uptake from blood to brain in rat. It counts as ADME, tissue-based. The note with it: brain and blood.
Another series concerns the target Cytochrome P450 3A4 (Homo sapiens, UniProt P08684). Nature of the series: Inhibition of CYP3A4. It is filed as ADME.
The test system of another series is Rattus norvegicus. As to the kind of experiment: In vivo antagonist activity at NPY Y5 receptor in orally dosed rat assessed as reduction in food intake. The note with it: oral, read-out: MED.
For a further series, the target named is Cytochrome P450 2C19 (Homo sapiens, UniProt P33261). As to the kind of experiment: Inhibition of CYP2C19. It counts as ADME.
Series [7] relates to Liver microsomes. As to the kind of experiment: Intrinsic clearance in rat liver microsome. It is filed as ADME. A general note: Microsomes from liver hold many membrane-bound enzymes, among them those of drug oxidation.

Each structure is given as a SMILES string. Some results are limits rather than exact numbers.

Cytochrome P450 2D6, sequence (P10635 whole entry): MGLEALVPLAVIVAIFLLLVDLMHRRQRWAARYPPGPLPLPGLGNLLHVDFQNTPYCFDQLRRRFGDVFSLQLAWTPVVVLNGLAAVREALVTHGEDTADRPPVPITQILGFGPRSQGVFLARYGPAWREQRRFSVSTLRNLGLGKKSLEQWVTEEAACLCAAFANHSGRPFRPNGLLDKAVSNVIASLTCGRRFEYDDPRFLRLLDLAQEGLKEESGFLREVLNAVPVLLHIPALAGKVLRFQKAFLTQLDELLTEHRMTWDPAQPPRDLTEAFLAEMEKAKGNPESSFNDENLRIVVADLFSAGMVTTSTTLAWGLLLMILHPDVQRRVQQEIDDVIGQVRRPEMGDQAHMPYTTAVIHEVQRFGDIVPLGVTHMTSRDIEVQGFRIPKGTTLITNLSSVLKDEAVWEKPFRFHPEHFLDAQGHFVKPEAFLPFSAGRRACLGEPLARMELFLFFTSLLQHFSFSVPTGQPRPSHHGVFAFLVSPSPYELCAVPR
Cytochrome P450 3A4, sequence (P08684 whole entry): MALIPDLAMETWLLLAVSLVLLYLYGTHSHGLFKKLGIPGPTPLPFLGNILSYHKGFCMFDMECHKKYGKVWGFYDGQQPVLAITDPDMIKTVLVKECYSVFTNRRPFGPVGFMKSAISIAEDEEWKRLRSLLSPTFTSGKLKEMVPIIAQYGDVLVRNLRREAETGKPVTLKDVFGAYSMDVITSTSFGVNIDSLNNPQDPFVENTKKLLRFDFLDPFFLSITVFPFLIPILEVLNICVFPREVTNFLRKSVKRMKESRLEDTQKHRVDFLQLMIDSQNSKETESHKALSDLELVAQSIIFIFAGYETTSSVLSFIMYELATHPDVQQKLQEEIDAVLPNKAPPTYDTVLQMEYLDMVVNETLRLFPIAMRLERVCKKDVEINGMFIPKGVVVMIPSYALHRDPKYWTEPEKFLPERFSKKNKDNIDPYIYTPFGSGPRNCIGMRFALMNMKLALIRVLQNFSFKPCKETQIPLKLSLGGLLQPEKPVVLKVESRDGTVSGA
Cytochrome P450 2C9, sequence (P11712 whole entry): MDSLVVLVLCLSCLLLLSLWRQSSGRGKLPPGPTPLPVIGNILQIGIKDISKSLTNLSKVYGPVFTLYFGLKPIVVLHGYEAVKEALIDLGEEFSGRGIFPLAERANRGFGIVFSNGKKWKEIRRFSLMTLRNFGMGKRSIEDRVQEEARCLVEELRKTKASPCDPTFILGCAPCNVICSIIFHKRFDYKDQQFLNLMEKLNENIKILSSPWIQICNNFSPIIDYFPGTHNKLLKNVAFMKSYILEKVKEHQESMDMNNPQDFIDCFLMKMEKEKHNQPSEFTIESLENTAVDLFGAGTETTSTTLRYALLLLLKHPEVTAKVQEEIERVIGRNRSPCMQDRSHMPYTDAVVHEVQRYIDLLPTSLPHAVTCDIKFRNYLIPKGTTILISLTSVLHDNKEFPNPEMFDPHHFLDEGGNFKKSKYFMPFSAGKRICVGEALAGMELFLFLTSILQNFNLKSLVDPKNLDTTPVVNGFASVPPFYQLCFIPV
Cytochrome P450 2C19, sequence (P33261 whole entry): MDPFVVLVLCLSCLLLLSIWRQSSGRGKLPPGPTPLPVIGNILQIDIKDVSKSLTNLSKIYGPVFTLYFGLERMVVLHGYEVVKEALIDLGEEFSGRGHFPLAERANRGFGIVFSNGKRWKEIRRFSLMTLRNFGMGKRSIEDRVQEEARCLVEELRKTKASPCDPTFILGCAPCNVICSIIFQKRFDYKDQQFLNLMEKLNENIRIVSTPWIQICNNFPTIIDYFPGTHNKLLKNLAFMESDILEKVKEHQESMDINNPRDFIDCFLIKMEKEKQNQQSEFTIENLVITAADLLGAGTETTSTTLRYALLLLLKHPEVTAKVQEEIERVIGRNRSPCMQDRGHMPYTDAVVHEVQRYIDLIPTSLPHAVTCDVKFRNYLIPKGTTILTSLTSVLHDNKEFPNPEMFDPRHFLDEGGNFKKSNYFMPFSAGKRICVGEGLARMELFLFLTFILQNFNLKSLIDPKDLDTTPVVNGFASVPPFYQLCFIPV

By bioavailability is commonly meant the share of a dose that reaches the circulation, judged against a reference dose that is usually intravenous. A lower bioavailability goes with poor availability. Usually fraction unbound stands for the share of the substance not bound to proteins or other matrix. In general, Ki refers to the dissociation constant of the complex between target and ligand, obtained from inhibition or displacement. The low end stands for higher affinity, the high end for lower affinity. Broadly, the Kp is tissue or fluid exposure divided by exposure in the circulation. In [1], `O=C1O[C@]2(CC[C@H](CNc3nc(-c4ccccn4)cs3)CC2)CN1c1ccccn1` had a clearance of 30 mL/min/kg. In series [2], this molecule came in with a bioavailability of 35%. For the same molecule, the INH at Cytochrome P450 2C9 was 6 µM; at Cytochrome P450 1A2 it was above 10 µM; at Cytochrome P450 2D6, above 10 µM; on Cytochrome P450 3A4, 3 µM; on Cytochrome P450 2C19 it was 3 µM. The CL in the series on Liver microsomes [3] stood at 4 mL/min/g; with Liver microsomes [7] it was 3.1 mL/min/g. The fraction unbound in series [4] was 0.01. Also, the affinity in series [5], expressed as Ki, was 0.0794 nM. The Kp in series [6] worked out at 0.7. Moreover, the minimal effective dose in the series with Rattus norvegicus is 10 mg/kg.

Molecule `O=C1O[C@]2(CC[C@H](CNc3cnn(-c4ccccc4F)c3)CC2)CN1c1cccnn1` had a clearance in series [1] of 13 mL/min/kg. For the same molecule, the bioavailability in series [2] amounted to 52%. The INH on Cytochrome P450 2C9, at Cytochrome P450 1A2, on Cytochrome P450 2D6 and at Cytochrome P450 3A4 was above 10 µM throughout. For the same molecule, the CL with Liver microsomes [3] and in the series on Liver microsomes [7] was below 0.5 mL/min/g throughout. Besides, in [4], the fraction unbound is 0.031. The molecule also showed an inhibitory constant (Ki) in series [5] of 0.1 nM. The Kp in [6] worked out at 0.9. Moreover, in the series with Rattus norvegicus, the minimal effective dose is 3 mg/kg.

`O=C1O[C@]2(CC[C@H](CNc3ccc(-c4ccccc4F)nn3)CC2)CN1c1cccnn1` came in with a clearance in [1] of 18 mL/min/kg. The same molecule yielded a bioavailability in series [2] of 90%. Moreover, the INH at Cytochrome P450 2C9, on Cytochrome P450 1A2, at Cytochrome P450 2D6, at Cytochrome P450 3A4 and on Cytochrome P450 2C19 was above 10 µM each time. Moreover, the CL in the series with Liver microsomes [3] and in the series with Liver microsomes [7] was below 0.5 mL/min/g each time. The fraction unbound in series [4] was found to be 0.046. For the same molecule, the Ki in series [5] is 0.158 nM. Also, the Kp in series [6] is 0.25.

Take `O=C1O[C@]2(CC[C@H](CNc3ccc(-c4cc(F)cc(F)c4)nn3)CC2)CN1c1cccnn1`: the clearance in [1] was found to be 41 mL/min/kg. In series [2], this molecule displayed a bioavailability of 75%. Moreover, the INH was 8 µM at Cytochrome P450 2C9, above 10 µM at Cytochrome P450 1A2, above 10 µM on Cytochrome P450 2D6 and above 10 µM on Cytochrome P450 3A4. Further, the CL in the series on Liver microsomes [3] and with Liver microsomes [7] was below 0.5 mL/min/g each time. Moreover, the fraction unbound in series [4] is 0.016. In series [5], the Ki is 0.1 nM. In addition, in [6], the Kp came out at 1.6. Further, the minimal effective dose in the series on Rattus norvegicus amounted to 3 mg/kg.

The values above are taken from ChEMBL document CHEMBL1255172, “Discovery and structure-activity relationship of a novel spirocarbamate series of NPY Y5 antagonists” (Bioorg Med Chem Lett, 2010).
